# Literature values as cited in patent US9541834B2, “Ionic thermal acid generators for low temperature applications” (Rohm and Haas Electronic Materials LLC, priority 2012, dated 2017).
# Conditions: pKa of conjugate acid (BH)+ of the base of the TAG, aqueous solution, about room temperature
row,Molecule,pKa (base)
1,3-Fluoropyridinium perfluorobutanesulfonate [3-Fluoropyridinium PFBuS],2.8
2,Pyridazinium perfluorobutanesulfonate [Pyridazinium PFBuS],3.1
3,"N.O=S(=O)(O)C(F)(F)C(F)(F)C(F)(F)C(F)(F)F [Ammonium PFBuS, Ammonium perfluorobutanesulfonate]",9.25
